Article PMC7353089, “The Hepatotoxicity of Alantolactone and Germacrone: Their Influence on Cholesterol and Lipid Metabolism in Differentiated HepaRG Cells” (Nutrients, 2020)
“Also recorded” adds a separate entry of the source. Where two headings read alike, the source gives them in different places.

How the values were obtained:
[1] = tested on: dHepaRG cells; test: Lactate dehydrogenase (LDH) leakage; type: cell-based, human; settings: dHepaRG cell viability, read-out: IC50 ± SD, LDH
Protocol: Cryopreserved HepaRG cells were obtained from Biopredic International (Rennes, France). Undifferentiated cells were seeded according to the supplier protocols in 96-well plates for the viability assays, and in 6-well plates for the mRNA and western blot measurements. The cells were cultured for two weeks in Williams E Medium with GlutaMAX™ (Invitrogen, Paisley, UK) supplemented with 10% fetal bovine serum, 2 mM glutamine, 100 IU/mL penicillin, 100 μg/mL streptomycin, 5 μg/mL insulin, and 50 μM hydrocortisone hemisuccinate. The cells were afterwards cultured for another 2-week period in the same medium supplemented with 1.7% DMSO. The medium was replaced every 2–3 days.
Lactate dehydrogenase (LDH) leakage was measured using the Invitrogen™ CyQUANT™ LDH Cytotoxicity Assay Kit according to the manufacturer guidelines using 96-well plates. After 24 and 72-h exposure, the culture medium was collected and diluted ten times by distilled water. Fifty µL of reaction mixture was added to each sample well and mixed. After 30 min of incubation at room temperature, 50 µL of stop solution was added to each well. To determine LDH activity, 680-nm absorbance value (background) was subtracted from the 490-nm absorbance before calculation of % cytotoxicity. Cell lysate was set as 100% of the LDH leakage.

[2] = tested on: GPAM mRNA; test: RT-qPCR mRNA expression in dHepaRG cells; type: cell-based, human; settings: single exposure, 6, 12 and 24 h
Protocol: (§2) Three concentrations were selected for each compound (non-toxic, non-toxic/slightly toxic and toxic).
(§3) All treatments were performed in triplicates and every experiment was performed three times. The cells were washed twice with ice cold phosphate-buffered saline (PBS), scrapped and stored at −80 °C until use. Total RNA from cells was isolated using TriReagent according to the manufacturer’s instructions (Biotech, Prague, Czech Republic). The purified RNA was dissolved in 40 µL of diethyl pyrocarbonate (DEPC)-treated water (0.01% DEPC in HPLC water, autoclaved) and stored at −80 °C. The measurement of absorbance at 260 and 280 nm using the NanoDrop ND-1000 UV–VIS Spectrophotometer (Thermo Fisher Scientific, Pardubice, Czech Republic) was used to determine RNA yields and purity. Subsequently, the RNA (4 µg) was treated with 2 U of DNase I (New England Biolabs, Ipswich, MA, USA) in a final volume of 30 µL for 25 min at 37 °C, 1.5 µL of 0.1 M ethylenediaminetetraacetic acid was added and the DNAse was inactivated by heat (5 min at 75 °C). […] Fluorescence data were recorded at the end of each amplification step. Relative expression levels of the target genes were calculated as fold changes in triplicates for each group using the 2^−ΔΔCt method [28] by normalization to the geometric mean of the Ct values of Sdha and Ywhaz, which were used as reference genes.

[3] = tested on: dHepaRG cells; test: Cholesterol level (Amplex Red Cholesterol Assay kit); type: cell-based, human; settings: multiple exposure: four applications every 24 h, cells collected 12 h after the last; 30 μM ATL, 100 μM GER
Protocol: The cholesterol content in the dHepaRG cells was tested using the Amplex Red Cholesterol Assay kit (Invitrogen) according to the manufacturer’s instructions and as per An et al.. The cells were collected 12 h after the last exposure of the tested compounds in a 4-day exposure with a medium change every 24 h. The cells were rinsed three times in PBS to eliminate residual growth medium. Whole cell extracts were prepared by 0.5 mL of RIPA lysis buffer (0.5% sodium deoxycholate, 0.1% SDS, 1% NP-40, 150 mM NaCl, 1 mM DTT, 50 mM Tris–HCl (pH = 7.4) and phenylmethanesulfonyl fluoride. Fluorescence was measured using a microplate reader (Tecan Infinite M200) at 530 nm excitation and 590 nm emission wavelengths. The total cholesterol (TC) content was determined by measuring the cholesterol concentration following digestion with cholesterol esterase (CE). To measure the free cholesterol (FC), CE was omitted from the assay. Three independent experiments were performed. The values obtained from a cholesterol standard curve were normalized to protein content, measured by a BCA assay.

[4] = tested on: TFRC mRNA; test: RT-qPCR mRNA expression in dHepaRG cells; type: cell-based, human; settings: single exposure, also at other than toxic concentrations
Protocol: (§4) Three concentrations were selected for each compound (non-toxic, non-toxic/slightly toxic and toxic). […] The expression changes of genes and proteins related to cholesterol metabolism were measured in both single and multiple exposure experiments.
(§5) All treatments were performed in triplicates and every experiment was performed three times. The cells were washed twice with ice cold phosphate-buffered saline (PBS), scrapped and stored at −80 °C until use. Total RNA from cells was isolated using TriReagent according to the manufacturer’s instructions (Biotech, Prague, Czech Republic). The purified RNA was dissolved in 40 µL of diethyl pyrocarbonate (DEPC)-treated water (0.01% DEPC in HPLC water, autoclaved) and stored at −80 °C. The measurement of absorbance at 260 and 280 nm using the NanoDrop ND-1000 UV–VIS Spectrophotometer (Thermo Fisher Scientific, Pardubice, Czech Republic) was used to determine RNA yields and purity. […] Fluorescence data were recorded at the end of each amplification step. Relative expression levels of the target genes were calculated as fold changes in triplicates for each group using the 2^−ΔΔCt method [28] by normalization to the geometric mean of the Ct values of Sdha and Ywhaz, which were used as reference genes.

[5] = tested on: p-STAT3(Y705); test: Western blot protein level in dHepaRG cells; type: cell-based, human; settings: for phosphorylated p-STAT3(Y705) protein amount: 12-h exposure
Protocol: (§1) All the treatments were performed in triplicates. Protein concentration was measured using the bicinchoninic acid (BCA) protein assay (Sigma Aldrich, Prague, Czech Republic) according to the manufacturer’s instructions. The proteins were loaded onto a 10% sodium dodecyl sulfate (SDS; w/v)–polyacrylamide gel (with 4% stacking gel) and separated by SDS-PAGE electrophoresis. The proteins were transferred onto a nitrocellulose membrane using wet blot (100 V, 90 min). The membrane blocking was performed in a 5% non-fat dry milk/TRIS-buffered saline-Tween-20 (TBS-T) solution at room temperature for 2 h. Incubation with primary antibodies was accomplished overnight at 10 °C. β-actin was used as housekeeping protein (the list of primary antibodies in Table S2). Afterwards, the membrane was washed with 0.05% TBS-T solution for 6 × 5 min, incubated with respective secondary antibodies conjugated with horseradish peroxidase (bovine anti-rabbit (sc2370, Santa Cruz Biotechnology, Santa Cruz, CA, USA) at room temperature for 1.5 h, and rinsed with TBS-T solution for 6 × 5 min. Visualization of protein bands was carried out using a chemiluminescence kit (GE Healthcare, Buckinghamshire, UK).

[6] = tested on: NF-κB; test: Western blot protein level in dHepaRG cells; type: cell-based, human
Protocol: as §1

[7] = tested on: RIP1; test: Western blot protein level in dHepaRG cells; type: cell-based, human
Protocol: as §1

[8] = tested on: STAT3; test: Western blot protein level in dHepaRG cells; type: cell-based, human; settings: highest tested concentration (equal to IC50)
Protocol: as §1

[9] = tested on: HMGCR; test: Western blot protein level in dHepaRG cells; type: cell-based, human
Protocol: as §1

[10] = tested on: ACACB mRNA; test: RT-qPCR mRNA expression in dHepaRG cells; type: cell-based, human; settings: single exposure, 6, 12 and 24 h
Protocol: as §2, §3

[11] = tested on: CYP19A1 mRNA; test: RT-qPCR mRNA expression in dHepaRG cells; type: cell-based, human
Protocol: (§6) Three concentrations were selected for each compound (non-toxic, non-toxic/slightly toxic and toxic). The cholesterol level of the dHepaRG cells was measured after a multiple exposure of the highest non-toxic concentrations of tested compounds. […] The expression changes of genes and proteins related to cholesterol metabolism were measured in both single and multiple exposure experiments.
All treatments were performed in triplicates and every experiment was performed three times. The cells were washed twice with ice cold phosphate-buffered saline (PBS), scrapped and stored at −80 °C until use. Total RNA from cells was isolated using TriReagent according to the manufacturer’s instructions (Biotech, Prague, Czech Republic). The purified RNA was dissolved in 40 µL of diethyl pyrocarbonate (DEPC)-treated water (0.01% DEPC in HPLC water, autoclaved) and stored at −80 °C. The measurement of absorbance at 260 and 280 nm using the NanoDrop ND-1000 UV–VIS Spectrophotometer (Thermo Fisher Scientific, Pardubice, Czech Republic) was used to determine RNA yields and purity. Subsequently, the RNA (4 µg) was treated with 2 U of DNase I (New England Biolabs, Ipswich, MA, USA) in a final volume of 30 µL for 25 min at 37 °C, 1.5 µL of 0.1 M ethylenediaminetetraacetic acid was added and the DNAse was inactivated by heat (5 min at 75 °C). The solution was diluted to a concentration of 0.1 µg/µL. The DNAse treated RNA was stored at −80 °C until further analyses. The first strand cDNA was synthesized from 800 ng of total RNA and 1 µL of 50 µM random hexamers (Generi Biotech, Hradec Kralove, Czech Republic) using ProtoScript II reverse transcriptase (New England Biolabs, Ipswich, MA, USA). After the initial heat denaturation of total RNA (65 °C for 5 min), 4 µL of 5× ProtoScript II RT Reaction Buffer, 2 µL of 10× dithiothreitol (DTT), 2 µL of deoxynucleotide (dNTP) Mix 5 mM, 3.5 µL of H2O, and 0.5 µL of ProtoScript II 200 U/µL were added and mixed by pipetting. The reactions (20 µL) were incubated for 10 min at 25 °C, for 50 min at 42 °C, and for 5 min at 80 °C. The obtained cDNAs were diluted 1:6 by DEPC water. The qPCR analyses were carried out using QuantStudio 6 Flex (Applied Biosystems, Foster City, CA, USA) with SYBR green I (Xceed qPCR SG Mix, Institute of Applied Biotechnologies, Prague, Czech Republic) detection according to the manufacturer’s protocol. […] Fluorescence data were recorded at the end of each amplification step. Relative expression levels of the target genes were calculated as fold changes in triplicates for each group using the 2^−ΔΔCt method [28] by normalization to the geometric mean of the Ct values of Sdha and Ywhaz, which were used as reference genes.

[12] = tested on: PLIN2 mRNA; test: RT-qPCR mRNA expression in dHepaRG cells; type: cell-based, human; settings: single exposure, the highest concentrations
Protocol: as §6, §5

[13] = tested on: SCD mRNA; test: RT-qPCR mRNA expression in dHepaRG cells; type: cell-based, human; settings: single exposure, 6, 12 and 24 h
Protocol: as §2, §3

[14] = tested on: MCF-7; settings: read-out: Previously Reported IC50 Values (24 h), cited from earlier work
[15] = tested on: MDA-MB-231; settings: MDA-MB-231, 24 h; read-out: Previously Reported IC50 Values (24 h); cited from earlier work
[16] = tested on: HepG2; settings: HepG2, 24 h, read-out: Previously Reported IC50 Values (24 h), cited from earlier work
[17] = tested on: FASN mRNA; test: RT-qPCR mRNA expression in dHepaRG cells; type: cell-based, human; settings: single exposure, 6, 12 and 24 h
Protocol: as §6, §5

[18] = tested on: dHepaRG cells; test: ROS production (H2DCFDA probe); type: cell-based, human; settings: for lowest measured concentration leading to oxidative stress: ROS production; for ROS production: various concentrations, 1, 6, 12 and 24 h, H2-DCFDA probe
Protocol: The production of reactive oxygen species (ROS) was measured using 2′,7′-dichlorofluorescin diacetate probe (H2DCFDA). The cells were preincubated with 10 µM H2DCFDA for 30 min in the dark. Afterwards, the cells were washed with PBS and sesquiterpenes were added to a Hank’s Balanced Salt Solution (HBSS) buffer. Fluorescence was measured after 1, 6, 12, and 24 h with excitation and emission wavelengths of 490 nm and 530 nm, respectively, using the Tecan Infinite M200. Hydrogen peroxide (300 µM) served as a positive control.

[19] = tested on: G6PC mRNA; test: RT-qPCR mRNA expression in dHepaRG cells; type: cell-based, human; settings: single exposure, also at other than toxic concentrations
Protocol: as §4, §5

SMILES | IC50 ([1]; 24 h single exposure) [µM] | IC50 ([1]; 72 h single exposure) [µM] | GPAM mRNA level [2] | level of free cholesterol and esterified cholesterol [3] | TFRC mRNA expression [4] | RIP1 protein expression ([7]; 12-h exposure) | total STAT3 protein level [8] | ACACB mRNA level [10] | PLIN2 mRNA [12] | SCD mRNA level [13] | IC50 [15] [µM] | FASN mRNA level [17] | lowest measured concentration leading to oxidative stress [18] [µM] | ROS production [18] | G6PC mRNA expression [19] | other results
C=C1C(=O)O[C@@H]2C[C@@]3(C)CCC[C@H](C)C3=C[C@H]12 [ATL, alantolactone] | 61.1 ± 1.8 | 57.8 ± 2 | significantly decreased | no effect was observed | inhibited | decreased level | decrease | significantly decreased | induced | significantly decreased | > 15 | significantly decreased | 20 | significant time- and concentration-dependent enhancement of ROS production | dysregulated | phosphorylated p-STAT3(Y705) protein amount ([5]; all concentrations tested): decreased; also recorded: inhibition; NF-κB protein level ([6]; 24-h exposure, the highest concentration): significant decrease; RIP1 protein expression ([7]; 24-h exposure, highest concentration): decreased; HMGCR protein amount ([9]; single exposure, after 12 and 24 h): decrease; HMGCR protein level ([9]; single exposure, the higher concentrations after 12 and 24-h exposure): decrease; CYP19A1 mRNA level ([11]; 20 and 40 µM, all the studied intervals (6, 12, 24 h)): induced; IC50 ([14]; MCF-7, 24 h): 36 µM; IC50 ([16]; ref 9): 33 µM; IC50 ([16]; ref 35): 7 µM; IC50 ([16]; ref 36): 30 µM
CC(C)=C1C/C=C(\C)CC/C=C(\C)CC1=O [GER, germacrone] | 244 ± 15.5 | 234 ± 13.4 | significantly decreased | no effect was observed | inhibited | decreased level | decrease | significantly decreased | induced | significantly decreased | 244 | significantly decreased | 100 | significant time- and concentration-dependent enhancement of ROS production | dysregulated | phosphorylated p-STAT3(Y705) protein amount ([5]; both higher concentrations): decreased; p-STAT3 (Y705) phosphorylation ([5]; the higher concentrations after 12 and 24-h exposure): inhibition; NF-κB protein level ([6]; 12-h exposure): decreased level; HMGCR protein level ([9]; multiple exposure: four applications every 24 h, analyzed 12 h after the last, 30 μM ATL, 100 μM GER, 20 μM LOV): slight decrease; HMGCR protein amount ([9]; single exposure, only after 12-h exposure): decrease; HMGCR protein level ([9]; single exposure, the highest concentration after 12-h exposure): decrease; CYP19A1 mRNA level ([11]; 100 µM, 24-h exposure): induced the level by nearly two-fold; also recorded: significantly induced; CYP19A1 mRNA level ([11]; both higher concentrations, 6- and 12-hour exposure): decreased; IC50 ([14]; MCF7, 24 h, ref 11): 195 µM; IC50 ([14]; MCF7, 24 h, ref 37): > 200 µM; IC50 ([16]; ref 7): 170 µM; IC50 ([16]; ref 12): 160 µM; IC50 ([16]; ref 13): > 240 µM
